Test results as given in patent US20100247707A1, “DIPEPTIDES AS FEED ADDITIVES” (EVONIK DEGUSSA GmbH, priority 2009, published 2010).

Key:
ruminants = settings: in ruminants, WO00/28835; cited from earlier work
[1] = system: digestive enzymes from rainbow trout; assay: In vitro digestion of non-natural dipeptides LD-I / DL-II with digestive enzymes from rainbow trout; type: in vitro ADME, Oncorhynchus mykiss; settings: for portion of dipeptide cleaved: after 5 hours, in vitro reaction conditions; for speed of cleavage / digestion: non-natural dipeptides
Procedure: (§1) For this, the enzymes were isolated from the digestive tracts of the fishes and shrimps. The chemically synthesized dipeptides L-EAA-D-Met (LD-I) and D-Met-L-EAA (DL-II) were then reacted with the enzyme solutions obtained. For better comparability of the digestibilities of dipeptides of various species, identical conditions were selected for the in vitro digestion studies (37° C., pH 9). All non-natural dipeptides L-EAA-D-Met (LD-I) and D-Met-L-EAA (DL-II) are cleaved by digestive enzymes of the omnivorous mirror carp (see FIG. 7), of the herbivorous grass carp (see FIG. 8), of the carnivorous rainbow trout (see FIG. 11), of the omnivorous whiteleg shrimp (see FIG. 10) and of the chicken (see FIG. 17). The cleavages of D-Met-L-EAA (DL-II) proceed somewhat more slowly than the cleavages of the analogous L-EAA-D-Met (LD-I) dipeptides. With digestive enzymes of the Tilapia (see FIG. 9), in contrast, D-Met-L-EAA (DL-II) could be cleaved more quickly than L-EAA-D-Met (LD-I) dipeptides. […] After just 5 hours, under in vitro reaction conditions the bulk of the lysine-containing dipeptides had been cleaved by all of the digestive enzymes used.
a) Isolation of the Digestive Enzymes from Rainbow Trout (Oncorhynchus mykiss)
The digestive enzymes were isolated according to the method of EID and MATTY (Aquaculture 1989, 79, 111-119). For this, the intestines were removed from six one-year-old rainbow trout (Oncorhynchus mykiss) and processed as described in Example 18.
(§2) b) Procedure for the In Vitro Digestion Studies
The in vitro investigations were carried out similarly to Example 19 (see Table 6, FIG. 11).

[2] = system: digestive enzymes from chicken; assay: In vitro digestion of non-natural dipeptides LD-I / DL-II with digestive enzymes from chicken; type: in vitro ADME; settings: for portion of dipeptide cleaved: after 5 hours, in vitro reaction conditions; for speed of cleavage / digestion: non-natural dipeptides
Procedure: as §1
a) Isolation of the Digestive Enzymes from Chicken
The digestive enzymes were isolated according to the method of EID and MATTY (Aquaculture 1989, 79, 111-119). For this, the intestines were removed from a chicken and processed as described in Example 24.
as §2
(§3) D-Met-L-EAA (DL-II) or L-EAA-D-Met (LD-I) was taken up in TRIS/HCl buffer solution and the enzyme solution was added. As comparison and to assess the rate of purely chemical cleavage, a blank without enzyme solution was prepared in each case. A sample was taken from time to time and its composition was detected and quantified by means of a calibrated HPLC. The conversion was determined as the quotient of the area of methionine and the area of D-Met-L-EAA (DL-II) or L-EAA-D-Met (LD-I) (see Table 10, FIG. 17).

[3] = system: digestive enzymes of the Tilapia; assay: In vitro digestion of non-natural dipeptides LD-I / DL-II with digestive enzymes from Tilapia; type: in vitro ADME; settings: for portion of dipeptide cleaved: after 5 hours, in vitro reaction conditions; for speed of cleavage / digestion: non-natural dipeptides
Procedure: as §1

[4] = system: digestive enzymes from mirror carp; assay: In vitro digestion of non-natural dipeptides LD-I / DL-II with digestive enzymes from mirror carp; type: in vitro ADME, Cyprinus carpio morpha noblis; settings: for portion of dipeptide cleaved: after 5 hours, in vitro reaction conditions; for speed of cleavage / digestion: non-natural dipeptides
Procedure: as §1
a) Isolation of the Digestive Enzymes from Mirror Carp (Cyprinus carpio morpha noblis)
The digestive enzymes were isolated according to the method of EID and MATTY (Aquaculture 1989, 79, 111-119). For this, the intestines were removed from five one-year-old mirror carp (Cyprinus carpio morpha noblis) and processed as described in Example 18.
as §2
as §3, with “case (see Table 4).” for “case.”, “(see” for “(see Table 10,”, “7).” for “17).”

[5] = system: digestive enzymes from whiteleg shrimps; assay: In vitro digestion of non-natural dipeptides LD-I / DL-II with digestive enzymes from whiteleg shrimps; type: in vitro ADME, Litopenaeus vannamei; settings: whiteleg shrimp enzymes; for portion of dipeptide cleaved: after 5 hours, in vitro reaction conditions; for speed of cleavage / digestion: non-natural dipeptides
Procedure: as §1
a) Isolation of the Digestive Enzymes from Whiteleg Shrimps (Litopenaeus vannamei)
The digestive enzymes were isolated according to the method of Ezquerra and Garcia-Carreno (J. Food Biochem. 1999, 23, 59-74). For this, the hepatopancreas was removed from five kilograms of whiteleg shrimps (Litopenaeus vannamei) and comminuted in a mixer together with crushed ice. Further processing was carried out similarly to Example 18.
as §2
The in vitro investigations were carried out similarly to Example 19 (see Table 8, FIG. 10).

[6] = system: digestive enzymes of the herbivorous grass carp; assay: In vitro digestion of non-natural dipeptides LD-I / DL-II with digestive enzymes from grass carp; type: in vitro ADME; settings: for portion of dipeptide cleaved: after 5 hours, in vitro reaction conditions; for speed of cleavage / digestion: non-natural dipeptides
Procedure: as §1

Litopenaeus vannamei = settings: omnivorous shrimps Litopenaeus vannamei, Forster and Dominy 2006; cited from earlier work

Compound	bioavailability (ruminants)	portion of dipeptide cleaved [1]	speed of cleavage / digestion [1]	portion of dipeptide cleaved [2]	speed of cleavage / digestion [2]	portion of dipeptide cleaved [3]	speed of cleavage / digestion [3]	portion of dipeptide cleaved [4]	speed of cleavage / digestion [4]	portion of dipeptide cleaved [5]	speed of cleavage / digestion [5]	portion of dipeptide cleaved [6]	speed of cleavage / digestion [6]	effectiveness in feeding tests (Litopenaeus vannamei)
CSCCC(O)C(=O)OC(C)C (racemic) [HMBi, racemic iso-propyl ester of MHA]	at least 50%	–	–	–	–	–	–	–	–	–	–	–	–	–
L-Lys-D-Met×2HCl [LD-Ie]	–	bulk	particularly quickly	bulk	particularly quickly	bulk	particularly quickly	bulk	particularly quickly	bulk	particularly quickly	bulk	particularly quickly	–
CSCC[C@@H](N)C(=O)N[C@@H](CCCCN)C(=O)O.Cl.Cl (racemic) [DL-IIe, D-Met-L-Lys×2HCl]	–	bulk	particularly quickly	bulk	particularly quickly	bulk	particularly quickly	bulk	particularly quickly	bulk	particularly quickly	bulk	particularly quickly	–
CSCCC(N)C(=O)O (racemic) [DL-methionine]	–	–	–	–	–	–	–	–	–	–	–	–	–	equally as effective as L-methionine
